Data from PubChem BioAssay (NCI).
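Method: 48-hour compound exposure of cells in 96-well plates, five concentrations, linear interpolation of endpoints. Definition used: TGI = concentration required for complete inhibition of growth.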

Experiments:
Assay in all cases: DTP human tumour cell line panel, 48 h
OVCAR-3 ovarian = tested on: OVCAR-3 ovarian
U251 CNS = tested on: U251 CNS
HT29 colon = tested on: HT29 colon
MOLT-4 leukemia = tested on: MOLT-4 leukemia
NCI-H23 lung = tested on: NCI-H23 lung
SW-620 colon = tested on: SW-620 colon
CAKI-1 renal = tested on: CAKI-1 renal
IGROV1 ovarian = tested on: IGROV1 ovarian
SF-539 CNS = tested on: SF-539 CNS
HCC-2998 colon = tested on: HCC-2998 colon
OVCAR-5 ovarian = tested on: OVCAR-5 ovarian
SK-MEL-5 melanoma = tested on: SK-MEL-5 melanoma

## CCOC(=O)c1cc(C2(O)CCN(CC(C)CC)C2=O)c(-c2cc(C)no2)[nH]1 (stereo unspecified)
OVCAR-3 ovarian
  TGI: > 100 µM
U251 CNS
  TGI: > 100 µM
HT29 colon
  TGI: > 100 µM
MOLT-4 leukemia
  TGI: > 100 µM
NCI-H23 lung
  TGI: > 100 µM
SW-620 colon
  TGI: > 100 µM
CAKI-1 renal
  TGI: > 100 µM
IGROV1 ovarian
  TGI: > 100 µM
SF-539 CNS
  TGI: > 100 µM
HCC-2998 colon
  TGI: > 100 µM
OVCAR-5 ovarian
  TGI: > 100 µM
SK-MEL-5 melanoma
  TGI: > 100 µM

## O=[N+]([O-])c1cc2c(c3nonc13)OCCCCO2
OVCAR-3 ovarian
  TGI: 7.53 µM
U251 CNS
  TGI: 45.5 µM
HT29 colon
  TGI: 21.1 µM
MOLT-4 leukemia
  TGI: 9.79 µM
NCI-H23 lung
  TGI: 25.2 µM
SW-620 colon
  TGI: 20.7 µM
CAKI-1 renal
  TGI: 34.3 µM
IGROV1 ovarian
  TGI: 21.2 µM
SF-539 CNS
  TGI: 7.27 µM
HCC-2998 colon
  TGI: 35.5 µM
OVCAR-5 ovarian
  TGI: 26.2 µM
SK-MEL-5 melanoma
  TGI: 21.2 µM

## N#CC1(C#N)C2CCCCC23OC(=N)C1(C#N)C(c1ccccc1)O3 (stereo unspecified)
OVCAR-3 ovarian
  TGI: 28.2 µM
U251 CNS
  TGI: 69.6 µM
HT29 colon
  TGI: 60.2 µM
MOLT-4 leukemia
  TGI: > 100 µM
NCI-H23 lung
  TGI: > 100 µM
SW-620 colon
  TGI: > 100 µM
CAKI-1 renal
  TGI: 24.5 µM
IGROV1 ovarian
  TGI: 37.2 µM
SF-539 CNS
  TGI: 42.1 µM
HCC-2998 colon
  TGI: 29 µM
OVCAR-5 ovarian
  TGI: 50.6 µM
SK-MEL-5 melanoma
  TGI: 33 µM

## CC(C)(C)c1cc(C(=O)/C=C/C=C/c2ccccc2)cc(C(C)(C)C)c1O
OVCAR-3 ovarian
  TGI: > 94.1 µM
U251 CNS
  TGI: 33.5 µM
HT29 colon
  TGI: > 89.9 µM
MOLT-4 leukemia
  TGI: > 63.1 µM
NCI-H23 lung
  TGI: > 100 µM
SW-620 colon
  TGI: 41.4 µM
CAKI-1 renal
  TGI: > 100 µM
IGROV1 ovarian
  TGI: > 100 µM
SF-539 CNS
  TGI: 33.6 µM
HCC-2998 colon
  TGI: 28.2 µM
OVCAR-5 ovarian
  TGI: > 87 µM
SK-MEL-5 melanoma
  TGI: 37.2 µM

## CCOC(=O)NC1CN2CCC1CC2 (stereo unspecified)
OVCAR-3 ovarian
  TGI: > 100 µM
U251 CNS
  TGI: > 100 µM
HT29 colon
  TGI: > 100 µM
MOLT-4 leukemia
  TGI: > 100 µM
NCI-H23 lung
  TGI: > 100 µM
SW-620 colon
  TGI: > 100 µM
CAKI-1 renal
  TGI: > 100 µM
IGROV1 ovarian
  TGI: > 100 µM
SF-539 CNS
  TGI: > 100 µM
HCC-2998 colon
  TGI: > 100 µM
OVCAR-5 ovarian
  TGI: > 100 µM
SK-MEL-5 melanoma
  TGI: > 100 µM

## CCCCCC(/C=C/C1CCC(=O)C1CC#C[Si](C)(C)C)OCc1ccccc1 (stereo unspecified)
OVCAR-3 ovarian
  TGI: 39.1 µM
U251 CNS
  TGI: 40.6 µM
HT29 colon
  TGI: 31.1 µM
MOLT-4 leukemia
  TGI: > 68.9 µM
NCI-H23 lung
  TGI: 73.6 µM
SW-620 colon
  TGI: > 57 µM
CAKI-1 renal
  TGI: 36.8 µM
IGROV1 ovarian
  TGI: 28.7 µM
SF-539 CNS
  TGI: 46.2 µM
HCC-2998 colon
  TGI: 48.1 µM
OVCAR-5 ovarian
  TGI: 39.5 µM
SK-MEL-5 melanoma
  TGI: 27.9 µM

## COc1ccc(C(OCC2OC(n3cc(C)c(=O)[nH]c3=O)CC2n2cc(Cn3cc(Br)c(=O)[nH]c3=O)nn2)(c2ccccc2)c2ccccc2)cc1 (stereo unspecified)
OVCAR-3 ovarian
  TGI: > 100 µM
U251 CNS
  TGI: > 100 µM
HT29 colon
  TGI: > 100 µM
MOLT-4 leukemia
  TGI: > 100 µM
NCI-H23 lung
  TGI: > 100 µM
SW-620 colon
  TGI: > 100 µM
CAKI-1 renal
  TGI: > 100 µM
IGROV1 ovarian
  TGI: > 100 µM
SF-539 CNS
  TGI: > 100 µM
HCC-2998 colon
  TGI: > 100 µM
OVCAR-5 ovarian
  TGI: > 100 µM
SK-MEL-5 melanoma
  TGI: > 100 µM

## O=C(/C=C/C=C/c1ccccc1)c1ccc2c(c1)CCCC2
OVCAR-3 ovarian
  TGI: > 100 µM
U251 CNS
  TGI: > 100 µM
HT29 colon
  TGI: > 100 µM
MOLT-4 leukemia
  TGI: 87.6 µM
NCI-H23 lung
  TGI: > 100 µM
SW-620 colon
  TGI: > 100 µM
CAKI-1 renal
  TGI: > 100 µM
IGROV1 ovarian
  TGI: > 100 µM
SF-539 CNS
  TGI: > 100 µM
HCC-2998 colon
  TGI: 63.3 µM
OVCAR-5 ovarian
  TGI: > 100 µM
SK-MEL-5 melanoma
  TGI: > 100 µM

## COc1ccc(C(OC(C)=O)C2C(=C(C#N)C#N)c3ccccc3C2=C(C#N)C#N)cc1 (stereo unspecified)
OVCAR-3 ovarian
  TGI: 50.6 µM
U251 CNS
  TGI: > 100 µM
HT29 colon
  TGI: 95.1 µM
MOLT-4 leukemia
  TGI: 99.8 µM
NCI-H23 lung
  TGI: 85.7 µM
SW-620 colon
  TGI: > 100 µM
CAKI-1 renal
  TGI: > 100 µM
IGROV1 ovarian
  TGI: > 100 µM
SF-539 CNS
  TGI: 49.7 µM
HCC-2998 colon
  TGI: 59.9 µM
OVCAR-5 ovarian
  TGI: 38.3 µM
SK-MEL-5 melanoma
  TGI: > 100 µM

## CC(C)C1=C(Cc2ccccc2)C(=O)O/C1=C\c1cc(Cl)c(O)c(Cl)c1
OVCAR-3 ovarian
  TGI: 27.2 µM
U251 CNS
  TGI: 31.8 µM
HT29 colon
  TGI: 32.2 µM
MOLT-4 leukemia
  TGI: 60.7 µM
NCI-H23 lung
  TGI: 32.9 µM
SW-620 colon
  TGI: 44.6 µM
CAKI-1 renal
  TGI: 29.9 µM
IGROV1 ovarian
  TGI: 44.1 µM
SF-539 CNS
  TGI: 44.4 µM
HCC-2998 colon
  TGI: 42.3 µM
OVCAR-5 ovarian
  TGI: 43.7 µM
SK-MEL-5 melanoma
  TGI: 34.5 µM

## CCCCn1c(C)c2c(c1C)C(=O)N(CC(O)CN1CCc3ccccc3C1)C2=O (stereo unspecified)
OVCAR-3 ovarian
  TGI: > 100 µM
U251 CNS
  TGI: > 100 µM
HT29 colon
  TGI: > 100 µM
MOLT-4 leukemia
  TGI: > 100 µM
NCI-H23 lung
  TGI: > 100 µM
SW-620 colon
  TGI: > 100 µM
CAKI-1 renal
  TGI: > 100 µM
IGROV1 ovarian
  TGI: > 100 µM
SF-539 CNS
  TGI: > 100 µM
HCC-2998 colon
  TGI: > 100 µM
OVCAR-5 ovarian
  TGI: > 100 µM
SK-MEL-5 melanoma
  TGI: > 100 µM

## O=C(O)CCN(CCC(=O)O)c1ccc(/C=C2\SC(=S)NC2=O)cc1
OVCAR-3 ovarian
  TGI: > 100 µM
U251 CNS
  TGI: > 100 µM
HT29 colon
  TGI: > 100 µM
MOLT-4 leukemia
  TGI: > 100 µM
NCI-H23 lung
  TGI: > 100 µM
SW-620 colon
  TGI: > 100 µM
CAKI-1 renal
  TGI: > 100 µM
IGROV1 ovarian
  TGI: > 100 µM
SF-539 CNS
  TGI: > 100 µM
HCC-2998 colon
  TGI: > 100 µM
OVCAR-5 ovarian
  TGI: > 100 µM
SK-MEL-5 melanoma
  TGI: > 100 µM

## CSc1nncc2[nH]c(C)nc12
OVCAR-3 ovarian
  TGI: > 100 µM
U251 CNS
  TGI: > 100 µM
HT29 colon
  TGI: > 100 µM
MOLT-4 leukemia
  TGI: > 100 µM
NCI-H23 lung
  TGI: > 100 µM
SW-620 colon
  TGI: > 100 µM
CAKI-1 renal
  TGI: > 100 µM
IGROV1 ovarian
  TGI: > 100 µM
SF-539 CNS
  TGI: > 100 µM
HCC-2998 colon
  TGI: > 100 µM
OVCAR-5 ovarian
  TGI: > 100 µM
SK-MEL-5 melanoma
  TGI: > 100 µM

## CC(C)(C)C(=O)OC(N)/C=C/c1ccccc1 (stereo unspecified)
OVCAR-3 ovarian
  TGI: > 100 µM
U251 CNS
  TGI: > 100 µM
HT29 colon
  TGI: > 100 µM
MOLT-4 leukemia
  TGI: > 100 µM
NCI-H23 lung
  TGI: > 100 µM
SW-620 colon
  TGI: > 100 µM
CAKI-1 renal
  TGI: > 100 µM
IGROV1 ovarian
  TGI: > 100 µM
SF-539 CNS
  TGI: > 100 µM
HCC-2998 colon
  TGI: > 100 µM
OVCAR-5 ovarian
  TGI: > 100 µM
SK-MEL-5 melanoma
  TGI: > 100 µM

## Cc1cc(OCc2nnc3n2N=C(c2cc(F)c(Cl)cc2Cl)/C(=C/c2ccc(Cl)cc2)S3)ccc1Cl
OVCAR-3 ovarian
  TGI: > 100 µM
U251 CNS
  TGI: 43.4 µM
HT29 colon
  TGI: 52.5 µM
MOLT-4 leukemia
  TGI: 19.8 µM
NCI-H23 lung
  TGI: 79.9 µM
SW-620 colon
  TGI: 38.5 µM
CAKI-1 renal
  TGI: 49.9 µM
IGROV1 ovarian
  TGI: 52.8 µM
SF-539 CNS
  TGI: > 100 µM
HCC-2998 colon
  TGI: 40.3 µM
OVCAR-5 ovarian
  TGI: 95.5 µM
SK-MEL-5 melanoma
  TGI: 36.5 µM

## O=C(O)c1cccnc1
OVCAR-3 ovarian
  TGI: > 100 µM
U251 CNS
  TGI: > 100 µM
HT29 colon
  TGI: > 100 µM
MOLT-4 leukemia
  TGI: > 100 µM
NCI-H23 lung
  TGI: > 100 µM
SW-620 colon
  TGI: > 100 µM
CAKI-1 renal
  TGI: > 100 µM
IGROV1 ovarian
  TGI: > 100 µM
SF-539 CNS
  TGI: > 100 µM
HCC-2998 colon
  TGI: > 100 µM
OVCAR-5 ovarian
  TGI: > 100 µM
SK-MEL-5 melanoma
  TGI: > 100 µM

## C[C@H]1C2Cc3cc(N)ccc3[C@@]1(C)CCN2CCc1ccccc1
OVCAR-3 ovarian
  TGI: 92.6 µM
U251 CNS
  TGI: > 100 µM
HT29 colon
  TGI: > 100 µM
MOLT-4 leukemia
  TGI: > 100 µM
NCI-H23 lung
  TGI: > 100 µM
SW-620 colon
  TGI: > 100 µM
CAKI-1 renal
  TGI: > 100 µM
IGROV1 ovarian
  TGI: > 100 µM
SF-539 CNS
  TGI: > 100 µM
HCC-2998 colon
  TGI: 21.7 µM
OVCAR-5 ovarian
  TGI: > 100 µM
SK-MEL-5 melanoma
  TGI: 37.2 µM

## Cc1ccc(-c2cc(-c3ccc(Cl)cc3)nc(/N=C3\C(=O)N(CN4CCOCC4)c4ccc(Cl)cc43)n2)cc1
OVCAR-3 ovarian
  TGI: > 100 µM
U251 CNS
  TGI: 36.3 µM
HT29 colon
  TGI: 43.6 µM
MOLT-4 leukemia
  TGI: 57 µM
NCI-H23 lung
  TGI: 57.6 µM
SW-620 colon
  TGI: > 100 µM
CAKI-1 renal
  TGI: 85.5 µM
IGROV1 ovarian
  TGI: 33.1 µM
SF-539 CNS
  TGI: 59.5 µM
HCC-2998 colon
  TGI: 36.5 µM
OVCAR-5 ovarian
  TGI: > 100 µM
SK-MEL-5 melanoma
  TGI: 38.4 µM
